In patent US7371755B1 (Biota Scientific Management Pty Ltd., priority 1999, dated 2008):
Converted amounts (≈) assume the structure as drawn. Like-named read-outs stand apart in the source and are kept apart here.

Key:
HRV type 1A = experiment: Inhibition of viral cytopathic effect (CPE), HRV type 1A in MRC-5 cells; assay type: cell-based, human rhinovirus; details: for EC50: Enterovirus
Protocol: (§5) The ability of compounds to suppress virus replication and thereby protect cells from HRV-induced CPE was measured using human embryo lung (MRC-5) and human epidermoid carcinoma of the mouth (KB) cells infected with HRV type 1A and HRV type 2, respectively. […] Test compounds were dissolved in 100% anhydrous dimethyl sulfoxide and serially diluted in tissue culture medium. The antiviral potency of the test compounds was assessed by exposing replicate tissue culture wells to a selected dilution series of between 6 and 7 compound concentrations in the presence of sufficient test virus to invoke significant CPE over the course of the assay. Control cells were also exposed to identical concentrations of compounds in the absence of virus or were infected with virus under the same conditions but in the absence of compounds. Compounds of established anti-HRV efficacy (enviroxime, ribavirin and pirodavir) were assayed by identical procedures in parallel to the test compounds. Tissue culture media were identically supplemented to maintain cell viability and support viral growth while suppressing bacterial growth over the period of the assay (supplements: 2% fetal calf serum, 0.01% sodium bicarbonate, 50 g/ml gentamicin, 5 M magnesium chloride, 10 mM of zinc chloride). […] At this time all infected cultures were examined by eye using a light microscope and CPE scored on a scale of 0 (no CPE) to 4 (maximum CPE). Uninfected treated cultures were similarly scored for cytotoxic effects (eg. cell enlargement, granularity, rounding, detachment). […] As an alternative to a CC50 value, cytoxicity in some cases was expressed as the Minimum Toxic Concentration (MTC).
(§6) Vital dye staining to measure cell viability was also used to quantify CPE and cytotoxic effects. […] After the assay had been scored by eye with the aid of a microscope, 100 1 of neutral red (NR) solution (0.34% NR in phosphate buffered saline (PBS)) was added to each well and mixed gently. The assays were returned to the 37° C. incubator for 2 hours to facilitate uptake of the NR by viable cells. The medium/NR mixture was then aspirated from the surface of the cells, which were washed twice with PBS. 0.25 ml of absolute ethanol containing Sorensen's citrate buffer I, was added with gentle mixing and the assays incubated at room temperature in the dark for 30 minutes to dissolve the NR. NR staining of viable cells was then quantified spectrophotometrically by measuring the colour density of the NR solution using a BioTek EL-309 microplate reader at dual wavelengths of 540 and 405 nm. The differences in the two readings were automatically determined to eliminate background errors. EC50 and CC50 values were determined by regression analysis matching compound concentration to NR staining. The XTT method involved use of a solution of XTT (1 mg/ml in culture media) which was added to each well and the plates incubated at 37° C. for 4 hours. XTT metabolism was measured spectrophotometrically using a similar method to that described above except that the dual wavelengths were 450 nm and 650 nm. EC50 and CC50 values were determined by regression analysis using a similar method to that described above.

[1] = Cytotoxicity in uninfected treated cultures (HRV type 1A assay); assay type: cell-based, human; details: human
Protocol: as §5, §6

[2] = Cytotoxicity in uninfected treated cultures (HRV type 2 assay); details: human
Protocol: (§1) The ability of compounds to suppress virus replication and thereby protect cells from HRV-induced CPE was measured using human embryo lung (MRC-5) and human epidermoid carcinoma of the mouth (KB) cells infected with HRV type 1A and HRV type 2, respectively. Cells grown in 96 well tissue culture plates using conventional mammalian tissue culture medium (such as minimum essential medium) supplemented with fetal calf serum were used in an assay essentially similar to that described by Sidwell and Huffman (Applied Microbiology, 22, 797-801 (1971)). Test compounds were dissolved in 100% anhydrous dimethyl sulfoxide and serially diluted in tissue culture medium. The antiviral potency of the test compounds was assessed by exposing replicate tissue culture wells to a selected dilution series of between 6 and 7 compound concentrations in the presence of sufficient test virus to invoke significant CPE over the course of the assay. Control cells were also exposed to identical concentrations of compounds in the absence of virus or were infected with virus under the same conditions but in the absence of compounds. Compounds of established anti-HRV efficacy (enviroxime, ribavirin and pirodavir) were assayed by identical procedures in parallel to the test compounds. Tissue culture media were identically supplemented to maintain cell viability and support viral growth while suppressing bacterial growth over the period of the assay (supplements: 2% fetal calf serum, 0.01% sodium bicarbonate, […] gentamicin, […] magnesium chloride, […] of zinc chloride). […] At this time all infected cultures were examined by eye using a light microscope and CPE scored on a scale of 0 (no CPE) to 4 (maximum CPE). Uninfected treated cultures were similarly scored for cytotoxic effects (eg. cell enlargement, granularity, rounding, detachment). […] As an alternative to a CC50 value, cytoxicity in some cases was expressed as the Minimum Toxic Concentration (MTC).
(§2) Vital dye staining to measure cell viability was also used to quantify CPE and cytotoxic effects. The vital dye technique was based on either neutral red uptake (Modification of the method of McManus, Appl. Environment. Microbiol., 31, 35-38, 1976) or XXT metabolism. After the assay had been scored by eye with the aid of a microscope, 100 1 of neutral red (NR) solution (0.34% NR in phosphate buffered saline (PBS)) was added to each well and mixed gently. The assays were returned to the 37° C. incubator for 2 hours to facilitate uptake of the NR by viable cells. The medium/NR mixture was then aspirated from the surface of the cells, which were washed twice with PBS. 0.25 ml of absolute ethanol containing Sorensen's citrate buffer I, was added with gentle mixing and the assays incubated at room temperature in the dark for 30 minutes to dissolve the NR. NR staining of viable cells was then quantified spectrophotometrically by measuring the colour density of the NR solution using a BioTek EL-309 microplate reader at dual wavelengths of 540 and 405 nm. The differences in the two readings were automatically determined to eliminate background errors. EC50 and CC50 values were determined by regression analysis matching compound concentration to NR staining. The XTT method involved use of a solution of XTT (1 mg/ml in culture media) which was added to each well and the plates incubated at 37° C. for 4 hours. XTT metabolism was measured spectrophotometrically using a similar method to that described above except that the dual wavelengths were 450 nm and 650 nm. EC50 and CC50 values were determined by regression analysis using a similar method to that described above.
(§3) Selectivity indices (SI) are the CC50 or MTC divided by the EC50.

HRV type 2 = experiment: Inhibition of viral cytopathic effect (CPE), HRV type 2 in KB cells; assay type: cell-based, human rhinovirus; details: for EC50: Enterovirus, read-out: Activity on Rhinovirus Type 2 EC50
Protocol: as §5, §6

[3] = tested on: human embryo lung (MRC-5) cells; experiment: Cytotoxicity in uninfected treated cultures (HRV type 1A assay); assay type: cell-based
Protocol: as §5, §6

[4] = tested on: human epidermoid carcinoma of the mouth (KB) cells; experiment: Cytotoxicity in uninfected treated cultures (HRV type 2 assay)
Protocol: as §1, §2, §3

Enterovirus 70 = experiment: Activity against Enterovirus 70 in mammalian cell culture assay; assay type: cell-based
Protocol: (§4) Activity against Enteroviruses in Mammalian Cell Culture Assays Compounds 50 and 56 of the Invention were Tested Against Other Picornaviruses Using Similar cell based assays to those described in example 30 above and the results are shown in Table 6 below: […]

Coxsackie A21 = experiment: Activity against Coxsackie A21 in mammalian cell culture assay; assay type: cell-based
Protocol: as §4

Echo 21 = experiment: Activity against Echo 21 in mammalian cell culture assay; assay type: cell-based
Protocol: as §4

mammalian cell culture [5] = experiment: in vitro; assay type: cell-based
Protocol: as §4

mammalian cell culture [6] = assay type: cell-based
Protocol: as §4

in vitro = assay type: cell-based
Protocol: as §4

[7] = MRC5, HRV type 1A, MRC-5 cells, concentration yielding 50% antiviral efficacy, read-out: Activity on Rhinovirus Type 1A EC50
[8] = HRV type 2, KB cells, concentration yielding 50% antiviral efficacy
[9] = HRV type 1A, MRC-5 cells, concentration yielding 50% antiviral efficacy
[10] = MRC5, read-out: Activity on Rhinovirus Type 1A EC50
[11] = Enterovirus D; read-out: Activity on Enterovirus 70 EC50

SMILES	CC50 [1] [µg/mL]	Activity on Rhinovirus Type 1A EC50 (HRV type 1A; [9]) [µg/mL]	Activity on Rhinovirus Type 1A CC50 [3] [µg/mL]	Activity on Rhinovirus Type 2 CC50 [4] [µg/mL]	Activity on Rhinovirus Type 2 EC50 (HRV type 2; [8]) [µg/mL]	further results
COCc1cc(CCCOc2c(C)cc(-c3ccccc3)cc2C)on1 [Compound 6, 3-(methoxymethyl)-5-[3-[2,6-dimethyl-4-phenylphenoxy]-propyl]-isoxazole]	> 50					EC50 (HRV type 1A; [7]): 0.16 µg/mL (≈ 0.455 µM); CC50 ([2]; KB cells, uninfected): > 5 µg/mL; EC50 (HRV type 2; [8]): < 0.005 µg/mL
Cc1cc(-c2ccccc2)cc(C)c1OCCCc1cc(COCCOCCOCCO)no1 [Compound 8]		0.59	22.7	5	0.001	
Cc1cc(-c2ccccc2)cc(C)c1OCCCc1cc(COCCOCCOCCOCCOCCOCCO)no1 [Compound 10]		>50	19	5	0.1	
CC(=O)NCCOCCOCc1cc(CCCOc2c(C)cc(-c3ccccc3)cc2C)on1 [Compound 19]						EC50 (HRV type 1A; [10]): 0.87 µg/mL (≈ 1.86 µM); CC50 ([1]; MRC-5 cells, no virus, CC50 or, in some cases, MTC, read-out: Activity on Rhinovirus Type 1A CC50): 5.79 µg/mL (≈ 12.4 µM); CC50 [2]: 2 µg/mL (≈ 4.29 µM); EC50 (HRV type 2; KB): < 0.005 µg/mL
Cc1cc(-c2noc(C(F)(F)F)n2)cc(C)c1OCCCc1cc(COCCOCCOCCO)no1 [Compound 24]		0.21	5.28	> 1	0.04	
Cc1cc(-c2ccccc2)cc(C)c1OCCCc1cc(COCCOCCOCCOCc2cc(CCCOc3c(C)cc(-c4ccccc4)cc3C)on2)no1 [Compound 32, 1,8-bis-[5-[3-[2,6-dimethyl-4-phenylphenoxy]-propyl]-isoxazolyl-3-methyloxy]-3,6-dioxaoctane]		0.32	> 50	> 5	0.1	
Cc1cc(-c2ccccc2)cc(C)c1OCCCc1cc(COCCOCCOCCOCCOCCOCCOCc2cc(CCCOc3c(C)cc(-c4ccccc4)cc3C)on2)no1 [Compound 34]		>50	10.9	> 0.5	0.09	
Cc1cc(-c2ccccc2)cc(C)c1OCCCc1cc(COCCOCCOCCOCCNC(=O)Nc2ccc(Cc3ccc(NC(=O)NCCOCCOCCOCCOCc4cc(CCCOc5c(C)cc(-c6ccccc6)cc5C)on4)cc3)cc2)no1 [Compound 48]		3.85	30.6	> 5	0.6	
Cc1cc(-c2noc(C(F)(F)F)n2)cc(C)c1OCCCc1cc(COCCOCCOCc2cc(CCCOc3c(C)cc(-c4noc(C(F)(F)F)n4)cc3C)on2)no1 [Compound 50, 1,5-bis-[5-[3-[2,6-dimethyl-4-(5-trifluoromethyl-1,2,4-oxadiazolyl)phenoxy]-propyl]-isoxazolyl-3-methyloxy]-3-oxapentane]		0.06	10	2	0.02	Activity on Enterovirus 70 EC50 (Enterovirus 70; Enterovirus 70): >50 µg/mL; Activity on Coxsackie A21 EC50 (Coxsackie A21): 0.35 µg/mL; Activity on Echo 21 EC50 (Echo 21): 0.0006 µg/mL; Activity on Echo 21 CC50 (mammalian cell culture [5]): 46.3 µg/mL; Activity on Coxsackie A21 CC50 (mammalian cell culture [6]): > 50 µg/mL; Activity on Enterovirus 70 CC50 (mammalian cell culture [6]): > 50 µg/mL
Cc1cc(-c2noc(C(F)(F)F)n2)cc(C)c1OCCCc1cc(COCCOCCOCCOCCOCc2ccc(COCCOCCOCCOCCOCc3cc(CCCOc4c(C)cc(-c5noc(C(F)(F)F)n5)cc4C)on3)cc2)no1 [Compound 56]		1.8	10	2	0.09	Activity on Enterovirus 70 EC50 (Enterovirus 70; Enterovirus 70): 2.88 µg/mL; Activity on Coxsackie A21 EC50 (Coxsackie A21): 0.36 µg/mL; Activity on Echo 21 EC50 (Echo 21): 0.0026 µg/mL; Activity on Echo 21 CC50 (mammalian cell culture [5]): 7.93 µg/mL; Activity on Coxsackie A21 CC50 (mammalian cell culture [6]): 11.1 µg/mL; Activity on Enterovirus 70 CC50 (mammalian cell culture [6]): > 50 µg/mL
CC(C)S(=O)(=O)n1c(N)nc2ccc(/C(=N/O)c3ccccc3)cc21 [Enviroxime]	0.49 (≈ 1.37 µM)					EC50 (Enterovirus 70; [11]): 0.21 µg/mL (≈ 0.586 µM); EC50 (HRV type 1A; [7]): 0.006 µg/mL (≈ 0.0167 µM); EC50 (Coxsackie A21): 0.39 µg/mL (≈ 1.09 µM); EC50 (Echo 21): 0.03 µg/mL (≈ 0.0837 µM); CC50 (in vitro): 0.45 µg/mL (≈ 1.26 µM)
CCOC(=O)c1ccc(OCCC2CCN(c3ccc(C)nn3)CC2)cc1 [Pirodavir, reference compound]	> 10					EC50 (HRV type 1A; [7]): 0.02 µg/mL (≈ 0.0541 µM); EC50 (HRV type 2; [8]): 0.003 µg/mL (≈ 0.00812 µM)
Cc1cc(CCCOc2c(C)cc(-c3noc(C(F)(F)F)n3)cc2C)on1 [Pleconaril, reference compound]	10 (≈ 26.2 µM)					EC50 (Enterovirus 70; Enterovirus D, read-out: Activity on Enterovirus 70 EC50): 0.28 µg/mL (≈ 0.734 µM); EC50 (HRV type 1A; [10]): 0.02 µg/mL (≈ 0.0524 µM); EC50 (Coxsackie A21): 0.0033 µg/mL (≈ 0.00865 µM); CC50 ([2]; KB cells, uninfected): 0.5 µg/mL (≈ 1.31 µM); EC50 (Echo 21): > 0.00016 µg/mL; EC50 (HRV type 2; KB): 0.05 µg/mL (≈ 0.131 µM)
NC(=O)c1ncn([C@@H]2O[C@H](CO)[C@@H](O)[C@H]2O)n1 [Ribavirin]	98.3 (≈ 403 µM)					EC50 (Enterovirus 70; [11]): > 100 µg/mL; EC50 (Coxsackie A21): > 100 µg/mL; EC50 (Echo 21): 3 µg/mL (≈ 12.3 µM)
